Reference: PubChem BioAssay (NCI)
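Values below derive from 48-hour exposures of cells grown in 96-well plates, with endpoints linearly interpolated between the two concentrations bracketing the appropriate inhibition level. Definition used: TGI = concentration required for complete inhibition of growth.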

Experiments:
Assay in all cases: inhibition of tumour cell growth, NCI panel, 48 h
RXF-631 renal = system: RXF-631 renal
LOX IMVI melanoma = system: LOX IMVI melanoma
U251 CNS = system: U251 CNS
CCRF-CEM leukemia = system: CCRF-CEM leukemia
HOP-18 NSCLC = system: HOP-18 NSCLC
NCI-H226 lung = system: NCI-H226 lung
KM12 colon = system: KM12 colon
M19-MEL melanoma = system: M19-MEL melanoma
SK-MEL-28 melanoma = system: SK-MEL-28 melanoma
SF-268 CNS = system: SF-268 CNS
TK-10 renal = system: TK-10 renal
OVCAR-8 ovarian = system: OVCAR-8 ovarian
HL-60(TB) leukemia = system: HL-60(TB) leukemia
IGROV1 ovarian = system: IGROV1 ovarian
786-0 renal = system: 786-0 renal
NCI-H522 lung = system: NCI-H522 lung
SNB-19 CNS = system: SNB-19 CNS
RPMI-8226 leukemia = system: RPMI-8226 leukemia
XF 498 CNS = system: XF 498 CNS
K-562 leukemia = system: K-562 leukemia
MALME-3M melanoma = system: MALME-3M melanoma
NCI-H460 lung = system: NCI-H460 lung
OVCAR-3 ovarian = system: OVCAR-3 ovarian
KM20L2 colon = system: KM20L2 colon
NCI-H23 lung = system: NCI-H23 lung
A549 NSCLC = system: A549 NSCLC
SN12C renal = system: SN12C renal
HCC-2998 colon = system: HCC-2998 colon
SNB-75 CNS = system: SNB-75 CNS
UACC-62 melanoma = system: UACC-62 melanoma
COLO 205 colon = system: COLO 205 colon
M14 melanoma = system: M14 melanoma
DMS 273 small cell lung = system: DMS 273 small cell lung
OVCAR-5 ovarian = system: OVCAR-5 ovarian
DLD-1 colon = system: DLD-1 colon
ACHN renal = system: ACHN renal
SF-295 CNS = system: SF-295 CNS
CAKI-1 renal = system: CAKI-1 renal
RXF 393 renal = system: RXF 393 renal
EKVX NSCLC = system: EKVX NSCLC
SNB-78 CNS = system: SNB-78 CNS
SK-MEL-5 melanoma = system: SK-MEL-5 melanoma
OVCAR-4 ovarian = system: OVCAR-4 ovarian
A498 renal = system: A498 renal
HCT-116 colon = system: HCT-116 colon
HT29 colon = system: HT29 colon
UACC-257 melanoma = system: UACC-257 melanoma
HOP-92 NSCLC = system: HOP-92 NSCLC
SW-620 colon = system: SW-620 colon
SK-OV-3 ovarian = system: SK-OV-3 ovarian
SF-539 CNS = system: SF-539 CNS
HOP-62 NSCLC = system: HOP-62 NSCLC
UO-31 renal = system: UO-31 renal
LXFL 529 NSCLC = system: LXFL 529 NSCLC
SK-MEL-2 melanoma = system: SK-MEL-2 melanoma
DMS 114 small cell lung = system: DMS 114 small cell lung
SR leukemia = system: SR leukemia
HCT-15 colon = system: HCT-15 colon
MOLT-4 leukemia = system: MOLT-4 leukemia

SMILES: CC(=O)OCC1(C)C(OC(C)=O)CCC2(C)C(CC(OC(C)=O)C3=CCOC3=O)C(O)(CO)CCC12 (centres undefined)
- TGI (RXF-631 renal): > 100 µM
- TGI (LOX IMVI melanoma): > 100 µM
- TGI (U251 CNS): > 100 µM
- TGI (CCRF-CEM leukemia): > 100 µM
- TGI (HOP-18 NSCLC): > 100 µM
- TGI (NCI-H226 lung): > 100 µM
- TGI (KM12 colon): > 100 µM
- TGI (M19-MEL melanoma): > 100 µM
- TGI (SK-MEL-28 melanoma): > 100 µM
- TGI (SF-268 CNS): > 100 µM
- TGI (TK-10 renal): > 100 µM
- TGI (OVCAR-8 ovarian): > 100 µM
- TGI (HL-60(TB) leukemia): > 100 µM
- TGI (IGROV1 ovarian): > 100 µM
- TGI (786-0 renal): > 100 µM
- TGI (NCI-H522 lung): > 100 µM
- TGI (SNB-19 CNS): > 100 µM
- TGI (RPMI-8226 leukemia): > 100 µM
- TGI (XF 498 CNS): > 100 µM
- TGI (K-562 leukemia): > 100 µM
- TGI (MALME-3M melanoma): > 100 µM
- TGI (NCI-H460 lung): > 100 µM
- TGI (OVCAR-3 ovarian): > 100 µM
- TGI (KM20L2 colon): > 100 µM
- TGI (NCI-H23 lung): > 100 µM
- TGI (A549 NSCLC): > 100 µM
- TGI (SN12C renal): > 100 µM
- TGI (HCC-2998 colon): > 100 µM
- TGI (SNB-75 CNS): > 100 µM
- TGI (UACC-62 melanoma): > 100 µM
- TGI (COLO 205 colon): > 100 µM
- TGI (M14 melanoma): > 100 µM
- TGI (DMS 273 small cell lung): > 100 µM
- TGI (OVCAR-5 ovarian): > 100 µM
- TGI (DLD-1 colon): > 100 µM
- TGI (ACHN renal): > 100 µM
- TGI (SF-295 CNS): > 100 µM
- TGI (CAKI-1 renal): > 100 µM
- TGI (RXF 393 renal): > 100 µM
- TGI (EKVX NSCLC): > 100 µM
- TGI (SNB-78 CNS): > 100 µM
- TGI (SK-MEL-5 melanoma): > 100 µM
- TGI (OVCAR-4 ovarian): > 100 µM
- TGI (A498 renal): > 100 µM
- TGI (HCT-116 colon): > 100 µM
- TGI (HT29 colon): > 100 µM
- TGI (UACC-257 melanoma): > 100 µM
- TGI (HOP-92 NSCLC): > 100 µM
- TGI (SW-620 colon): > 100 µM
- TGI (SK-OV-3 ovarian): > 100 µM
- TGI (SF-539 CNS): > 100 µM
- TGI (HOP-62 NSCLC): > 100 µM
- TGI (UO-31 renal): > 100 µM
- TGI (LXFL 529 NSCLC): > 100 µM

SMILES: NCCc1ccc2oc3cc(=O)c4ccccc4c-3nc2c1
- TGI (RXF-631 renal): 8.88 µM
- TGI (LOX IMVI melanoma): 4.42 µM
- TGI (U251 CNS): 10.6 µM
- TGI (CCRF-CEM leukemia): 4.49 µM
- TGI (HOP-18 NSCLC): 4.67 µM
- TGI (NCI-H226 lung): 17.5 µM
- TGI (KM12 colon): 8.35 µM
- TGI (M19-MEL melanoma): 0.894 µM
- TGI (SK-MEL-28 melanoma): 10.7 µM
- TGI (SF-268 CNS): 15.4 µM
- TGI (TK-10 renal): 27.3 µM
- TGI (OVCAR-8 ovarian): 10.6 µM
- TGI (HL-60(TB) leukemia): 3.42 µM
- TGI (IGROV1 ovarian): 15.5 µM
- TGI (786-0 renal): 4.89 µM
- TGI (NCI-H522 lung): 7.66 µM
- TGI (SNB-19 CNS): 11 µM
- TGI (RPMI-8226 leukemia): 23.2 µM
- TGI (SK-MEL-2 melanoma): 5.16 µM
- TGI (DMS 114 small cell lung): 2.85 µM
- TGI (XF 498 CNS): 7.01 µM
- TGI (K-562 leukemia): 6.95 µM
- TGI (MALME-3M melanoma): 4.37 µM
- TGI (NCI-H460 lung): 2.76 µM
- TGI (OVCAR-3 ovarian): 8.12 µM
- TGI (KM20L2 colon): 9.12 µM
- TGI (NCI-H23 lung): 2.39 µM
- TGI (A549 NSCLC): 2.18 µM
- TGI (SR leukemia): 4.67 µM
- TGI (SN12C renal): 7.22 µM
- TGI (HCC-2998 colon): 6.78 µM
- TGI (SNB-75 CNS): 6.06 µM
- TGI (UACC-62 melanoma): 8.58 µM
- TGI (COLO 205 colon): 1.81 µM
- TGI (M14 melanoma): 4.18 µM
- TGI (DMS 273 small cell lung): 3.11 µM
- TGI (OVCAR-5 ovarian): 15.4 µM
- TGI (DLD-1 colon): 9.34 µM
- TGI (ACHN renal): 12 µM
- TGI (SF-295 CNS): 9.48 µM
- TGI (CAKI-1 renal): 24 µM
- TGI (RXF 393 renal): 9.94 µM
- TGI (HCT-15 colon): 5.01 µM
- TGI (EKVX NSCLC): 25.1 µM
- TGI (SNB-78 CNS): 23.3 µM
- TGI (SK-MEL-5 melanoma): 2.13 µM
- TGI (OVCAR-4 ovarian): 15.8 µM
- TGI (A498 renal): 26.3 µM
- TGI (HCT-116 colon): 2.87 µM
- TGI (HT29 colon): 4.35 µM
- TGI (UACC-257 melanoma): 7.4 µM
- TGI (HOP-92 NSCLC): 21.6 µM
- TGI (SW-620 colon): 5.95 µM
- TGI (SK-OV-3 ovarian): 24.4 µM
- TGI (SF-539 CNS): 6.35 µM
- TGI (MOLT-4 leukemia): 5.52 µM
- TGI (HOP-62 NSCLC): 10.3 µM
- TGI (UO-31 renal): 9.37 µM
- TGI (LXFL 529 NSCLC): 13.4 µM

SMILES: CCCCCCCCCCC(O)CCCCCCC(=O)O (centres undefined)
- TGI (RXF-631 renal): 39.1 µM
- TGI (LOX IMVI melanoma): 31.1 µM
- TGI (U251 CNS): 45.8 µM
- TGI (CCRF-CEM leukemia): 91.3 µM
- TGI (HOP-18 NSCLC): 63 µM
- TGI (NCI-H226 lung): > 100 µM
- TGI (KM12 colon): 31.6 µM
- TGI (M19-MEL melanoma): > 100 µM
- TGI (SK-MEL-28 melanoma): > 100 µM
- TGI (SF-268 CNS): > 100 µM
- TGI (TK-10 renal): > 100 µM
- TGI (OVCAR-8 ovarian): 31.1 µM
- TGI (HL-60(TB) leukemia): 25.6 µM
- TGI (IGROV1 ovarian): 34.6 µM
- TGI (786-0 renal): 93.3 µM
- TGI (NCI-H522 lung): 62.5 µM
- TGI (SNB-19 CNS): > 100 µM
- TGI (RPMI-8226 leukemia): 28.2 µM
- TGI (SK-MEL-2 melanoma): > 100 µM
- TGI (DMS 114 small cell lung): 56.2 µM
- TGI (XF 498 CNS): 88.9 µM
- TGI (K-562 leukemia): 39.1 µM
- TGI (MALME-3M melanoma): 59.5 µM
- TGI (NCI-H460 lung): 32.4 µM
- TGI (OVCAR-3 ovarian): 45.3 µM
- TGI (NCI-H23 lung): > 100 µM
- TGI (A549 NSCLC): 54.7 µM
- TGI (SR leukemia): 41.9 µM
- TGI (SN12C renal): 50.7 µM
- TGI (SNB-75 CNS): > 100 µM
- TGI (UACC-62 melanoma): 41.7 µM
- TGI (COLO 205 colon): 30 µM
- TGI (M14 melanoma): 44.3 µM
- TGI (DMS 273 small cell lung): 55.6 µM
- TGI (OVCAR-5 ovarian): > 100 µM
- TGI (DLD-1 colon): 59.7 µM
- TGI (ACHN renal): 54 µM
- TGI (SF-295 CNS): 80.8 µM
- TGI (CAKI-1 renal): > 100 µM
- TGI (RXF 393 renal): 98 µM
- TGI (EKVX NSCLC): > 100 µM
- TGI (SNB-78 CNS): > 100 µM
- TGI (SK-MEL-5 melanoma): 29.9 µM
- TGI (OVCAR-4 ovarian): > 100 µM
- TGI (A498 renal): 46.1 µM
- TGI (HCT-116 colon): 33.3 µM
- TGI (HT29 colon): 40.6 µM
- TGI (UACC-257 melanoma): > 100 µM
- TGI (HOP-92 NSCLC): 37.3 µM
- TGI (SW-620 colon): 86.5 µM
- TGI (SK-OV-3 ovarian): > 100 µM
- TGI (SF-539 CNS): 67.3 µM
- TGI (MOLT-4 leukemia): 34.5 µM
- TGI (HOP-62 NSCLC): > 100 µM
- TGI (UO-31 renal): > 100 µM
- TGI (LXFL 529 NSCLC): 71 µM
